Data published in US20070161623A1, “Urea derivatives” (MERCK PATENT GMBH, priority 2004, published 2007).

Biological target: FXa (Homo sapiens, UniProt P00742)
Assay: Factor Xa inhibition (FXa-IC50)
Type: biochemical
Text: The inhibition of factor Xa by the compounds according to the invention and the measurement of the anticoagulant and antithrombotic activity can be determined by conventional in-vitro or in-vivo methods. A suitable method is described, for example, by J. Hauptmann et al. in Thrombosis and Haemostasis 1990, 63, 220-223.
The inhibition of factor Xa can be measured, for example by the method of T. Hara et al. in Thromb. Haemostas. 1994, 71, 314-319.

Sequence of FXa (P00742 235-488 limits assumed): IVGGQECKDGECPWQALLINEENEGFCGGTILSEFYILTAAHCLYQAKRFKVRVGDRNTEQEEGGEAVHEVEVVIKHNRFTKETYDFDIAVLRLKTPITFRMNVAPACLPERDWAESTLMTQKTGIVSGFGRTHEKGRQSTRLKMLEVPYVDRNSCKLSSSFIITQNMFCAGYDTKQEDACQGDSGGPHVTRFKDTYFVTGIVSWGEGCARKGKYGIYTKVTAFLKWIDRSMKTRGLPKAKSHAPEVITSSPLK
Sequence of FXa (P00742 41-179 limits assumed): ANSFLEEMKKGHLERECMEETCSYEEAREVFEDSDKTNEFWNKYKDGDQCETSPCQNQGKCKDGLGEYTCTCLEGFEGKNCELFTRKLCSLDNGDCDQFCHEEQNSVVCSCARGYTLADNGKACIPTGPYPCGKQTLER

IC50 [nM] | SMILES
12 | Cc1cc(NC(=O)Nc2cc(O)ccc2NC(=O)Nc2ccc(Cl)cc2)ccc1N1CCOCC1=O [Compound A1, 1-(4-chlorophenyl)-3-(4-hydroxy-2-{3-[3-methyl-4-(3-oxo-morpholin-4-yl)phenyl]ureido}phenyl)urea]
420 | Cc1cc(NC(=O)Nc2ccncc2NC(=O)Nc2ccc(Cl)cc2)ccc1N1CCOCC1=O [Compound B0, 1-(4-Chlorophenyl)-3-(4-{3-[3-methyl-4-(3-oxomorpholin-4-yl)-phenyl]ureido}pyridin-3-yl)urea]
